What was measured:
[1] = Metabolic stability in human liver microsomes assessed as drug remaining after 30 mins; type: ADME, Microsome; conditions: read-out: Stability
[2] = Metabolic stability in mouse liver microsomes assessed as drug remaining after 30 mins; type: ADME, Microsome; conditions: read-out: Stability
[3] = Cmax in plasma of mouse bearing human WM266.4 cells at 50 mg/kg, iv; type: ADME, organism-based; design: dose 50 mg/kg, route intravenous
[4] = Cmax in tumor of mouse bearing human WM266.4 cells at 50 mg/kg, iv; type: ADME, organism-based, Neoplasm; design: dose 50 mg/kg, route intravenous; conditions: read-out: Cmax_tumor
[5] = AUC in plasma of mouse bearing human WM266.4 cells at 50 mg/kg, iv; type: ADME, organism-based; design: dose 50 mg/kg, route intravenous
[6] = AUC in tumor of mouse bearing human WM266.4 cells at 50 mg/kg, iv; type: ADME, organism-based, Neoplasm; design: dose 50 mg/kg, route intravenous
[7] = test system: Plasma; test: Apparent volume of distribution in plasma of mouse bearing human WM266.4 cells at 50 mg/kg, iv; type: ADME, organism-based; design: dose 50 mg/kg, route intravenous; conditions: in vivo
[8] = Apparent volume of distribution in tumor of mouse bearing human WM266.4 cells at 50 mg/kg, iv; type: ADME, organism-based, Neoplasm; design: dose 50 mg/kg, route intravenous; conditions: read-out: Vz
[9] = test system: Plasma; test: Clearance in plasma of mouse bearing human WM266.4 cells at 50 mg/kg, iv; type: ADME, organism-based; design: dose 50 mg/kg, route intravenous; conditions: in vivo
[10] = Clearance in tumor of mouse bearing human WM266.4 cells at 50 mg/kg, iv; type: ADME, organism-based, Neoplasm; design: dose 50 mg/kg, route intravenous; conditions: in vivo
[11] = Half life in tumor of mouse bearing human WM266.4 cells at 50 mg/kg, iv; type: ADME, organism-based, Neoplasm; design: dose 50 mg/kg, route intravenous
[12] = AUC in tumor of mouse bearing human WM266.4 cells at 50 mg/kg, ip; type: ADME, organism-based, Neoplasm; design: dose 50 mg/kg, route intraperitoneal
[13] = test system: Plasma; test: Apparent volume of distribution in plasma of mouse bearing human WM266.4 cells at 50 mg/kg, ip; type: ADME, organism-based; design: dose 50 mg/kg, route intraperitoneal; conditions: in vivo
[14] = Apparent volume of distribution in tumor of mouse bearing human WM266.4 cells at 50 mg/kg, ip; type: ADME, organism-based, Neoplasm; design: dose 50 mg/kg, route intraperitoneal; conditions: in vivo
[15] = Clearance in plasma of mouse bearing human WM266.4 cells at 50 mg/kg, ip; type: ADME, organism-based; design: dose 50 mg/kg, route intraperitoneal
[16] = Clearance in tumor of mouse bearing human WM266.4 cells at 50 mg/kg, ip; type: ADME, organism-based, Neoplasm; design: dose 50 mg/kg, route intraperitoneal; conditions: in vivo
[17] = Half life in plasma of mouse bearing human WM266.4 cells at 50 mg/kg, ip; type: ADME, organism-based; design: dose 50 mg/kg, route intraperitoneal
[18] = Half life in tumor of mouse bearing human WM266.4 cells at 50 mg/kg, ip; type: ADME, organism-based, Neoplasm; design: dose 50 mg/kg, route intraperitoneal
[19] = test system: Mus musculus; test: Hepatic blood flow in mouse bearing human WM266.4 cells at 50 mg/kg, ip; type: ADME, organism-based, Liver; design: dose 50 mg/kg, route intraperitoneal; conditions: in vivo
[20] = Drug level in tumor of mouse bearing human WM266.4 cells at 50 mg/kg, ip administered once daily for 5 days measured after 24 hrs after final dose; type: ADME, organism-based, Neoplasm; design: dose 50 mg/kg, route intraperitoneal; conditions: read-out: Drug uptake
[21] = Toxicity in mouse assessed as maximum tolerated dose; type: organism-based; conditions: in vivo
[22] = test system: Mus musculus; test: Toxicity in mouse assessed as body weight loss at 70 mg/kg, ip after 8 days; type: organism-based; design: dose 70 mg/kg, route intraperitoneal; conditions: in vivo, 192 h
[23] = test system: BT-474; test: Antitumor activity against human BT474 cells xenografted in mouse at 50 mg/kg, ip; type: functional; conditions: BT-474, ip, route intraperitoneal, read-out: TGI
[24] = Antitumor activity against human U87MG cells xenografted in mouse assessed as tumor regression at 50 mg/kg, ip; type: functional, U-87MG ATCC; conditions: route intraperitoneal
[25] = test system: Plasma; test: Half life in plasma of mouse bearing human WM266.4 cells at 50 mg/kg, iv; type: ADME, organism-based; design: dose 50 mg/kg, route intravenous; conditions: in vivo
[26] = AUC in plasma of mouse bearing human WM266.4 cells at 50 mg/kg, ip; type: ADME, organism-based; design: dose 50 mg/kg, route intraperitoneal
[27] = Cmax in tumor of mouse bearing human WM266.4 cells at 50 mg/kg, ip; type: ADME, organism-based, Neoplasm; design: dose 50 mg/kg, route intraperitoneal; conditions: read-out: Cmax_tumor
[28] = Cmax in plasma of mouse bearing human WM266.4 cells at 50 mg/kg, ip; type: ADME, organism-based; design: dose 50 mg/kg, route intraperitoneal
[29] = Cmax in mouse at 100 mg/kg, po; type: ADME, organism-based; design: dose 100 mg/kg, route oral; conditions: in vivo
[30] = Tmax in mouse at 100 mg/kg, po; type: ADME, organism-based; design: dose 100 mg/kg, route oral; conditions: in vivo
[31] = AUC in mouse at 100 mg/kg, po; type: ADME, organism-based; design: dose 100 mg/kg, route oral; conditions: plasma
[32] = Half life in mouse at 100 mg/kg, po; type: ADME, organism-based; design: dose 100 mg/kg, route oral; conditions: in vivo
[33] = test system: Mus musculus; test: Toxicity in BALB/c mouse assessed as body weight loss at 125 mg/kg, po administered in QDx5 schedule; type: organism-based; design: dose 125 mg/kg, route oral; conditions: in vivo
[34] = test system: NCI-N87; test: animal or person; conditions: Mus musculus, NCI-N87, po, read-out: TGI
Description: Antitumor activity against human NCI-N87 cells xenografted in BALB/c mouse at 125 mg/kg, po administered in QDx5 schedule

[35] = test system: BT-474; test: animal or person; conditions: Mus musculus, BT-474, po, read-out: TGI
Description: Antitumor activity against human BT474 cells xenografted in BALB/c mouse at 120 mg/kg, po administered in QDx5 schedule

[36] = animal or person; conditions: Homo sapiens, CWR22, po, read-out: TGI
Description: Antitumor activity against human CWR22 cells xenografted in BALB/c mouse at 120 mg/kg, po administered in QDx5 schedule

[37] = animal or person; conditions: Homo sapiens, U-87 MG, po, read-out: TGI
Description: Antitumor activity against human U87 cells xenografted in BALB/c mouse at 75 mg/kg, po administered in BIDx5 schedule

[38] = test system: SK-OV-3; test: animal or person; conditions: Mus musculus, SK-OV-3, po, read-out: TGI
Description: Antitumor activity against human SKOV3 cells xenografted in BALB/c mouse at 124 mg/kg, po administered in QDx5 schedule

[39] = test system: PANC-1; test: animal or person; conditions: Mus musculus, PANC-1, po, read-out: TGI
Description: Antitumor activity against human PANC1 cells xenografted in BALB/c mouse at 124 mg/kg, po administered in QDx5 schedule

[40] = Half life in plasma of mouse bearing human MM1S cells at 50 mg/kg; type: ADME, organism-based; design: dose 50 mg/kg
[41] = Half life in tumor of mouse bearing human MM1S cells at 50 mg/kg; type: ADME, organism-based, Neoplasm; design: dose 50 mg/kg

CCNC(=O)c1noc(-c2cc(C(C)C)c(O)cc2O)c1-c1ccc(CN2CCOCC2)cc1 [LUMINESPIB]
remaining at 0.5 h [1]: 41% | remaining at 0.5 h [2]: 31% | Cmax [3]: 49 µM | Cmax [4]: 14 µM | AUC [5]: 15 µM·h | AUC [6]: 70 µM·h | Vz [7]: 0.875 L | Vd [8]: 0.44 L | CL [9]: 0.143 L/h | CL [10]: 0.02 L/h | half-life [11]: 15 h | AUC [12]: 36 µM·h | Vz [13]: 0.077 L | Vz [14]: 0.883 L | CL/F [15]: 1.37 mL/min | CL [16]: 0.41 L/h | half-life [17]: 1 h | half-life [18]: 15 h | LBF [19]: 108 mL/h | concentration at 24 h [20]: 6.8 µM | MTD [21]: 50 mg/kg | Activity [22]: 10% | inhibition in vivo at 50 mg/kg [23]: 79% | Activity [24]: 58% | t1/2 [25]: 1 h | AUC [26]: 26 µM·h | Cmax [27]: 6 µM | Cmax [28]: 53 µM

COc1c(C)cnc(Cn2cnc3c(Cl)nc(N)nc32)c1C [BIIB021]
Cmax [29]: 31 µM | Tmax [30]: 6 min | AUC [31]: 15 µM·h | half-life [32]: 0.8 h | Activity [33]: 3% | inhibition in vivo at 125 mg/kg [34]: 87% | inhibition in vivo at 120 mg/kg [35]: 94% | inhibition in vivo at 120 mg/kg [36]: 85% | inhibition in vivo at 75 mg/kg [37]: 70% | inhibition in vivo at 124 mg/kg [38]: 67% | inhibition in vivo at 124 mg/kg [39]: 51%

CC1(C)CC(=O)c2c(C(F)(F)F)nn(-c3ccc(C(N)=O)c(N[C@H]4CC[C@H](O)CC4)c3)c2C1 [SNX-2112]
half-life [40]: 3 h | half-life [41]: 10 h

From ChEMBL document CHEMBL1154885, “Heat shock protein 90: inhibitors in clinical trials” (J Med Chem, 2010)
